Our source for the IC50 values is patent US11845730B2, “1,3-substituted cyclobutyl derivatives and uses thereof” (Novartis AG, priority 2021, dated 2023).

Where a name gives a salt, the structure may show the parent alone.

The target in the assay is human TRPV1 (Homo sapiens (Human), UniProt Q8NER1). The note with it: read-out: IC50 (μM), antagonist effect against human TRPV1; CHO cells expressing human TrpV1; stimulated with 2.5 μM NADA (EC80); mean of at least three independent experiments.
Sequence of human TRPV1 (Q8NER1 whole entry): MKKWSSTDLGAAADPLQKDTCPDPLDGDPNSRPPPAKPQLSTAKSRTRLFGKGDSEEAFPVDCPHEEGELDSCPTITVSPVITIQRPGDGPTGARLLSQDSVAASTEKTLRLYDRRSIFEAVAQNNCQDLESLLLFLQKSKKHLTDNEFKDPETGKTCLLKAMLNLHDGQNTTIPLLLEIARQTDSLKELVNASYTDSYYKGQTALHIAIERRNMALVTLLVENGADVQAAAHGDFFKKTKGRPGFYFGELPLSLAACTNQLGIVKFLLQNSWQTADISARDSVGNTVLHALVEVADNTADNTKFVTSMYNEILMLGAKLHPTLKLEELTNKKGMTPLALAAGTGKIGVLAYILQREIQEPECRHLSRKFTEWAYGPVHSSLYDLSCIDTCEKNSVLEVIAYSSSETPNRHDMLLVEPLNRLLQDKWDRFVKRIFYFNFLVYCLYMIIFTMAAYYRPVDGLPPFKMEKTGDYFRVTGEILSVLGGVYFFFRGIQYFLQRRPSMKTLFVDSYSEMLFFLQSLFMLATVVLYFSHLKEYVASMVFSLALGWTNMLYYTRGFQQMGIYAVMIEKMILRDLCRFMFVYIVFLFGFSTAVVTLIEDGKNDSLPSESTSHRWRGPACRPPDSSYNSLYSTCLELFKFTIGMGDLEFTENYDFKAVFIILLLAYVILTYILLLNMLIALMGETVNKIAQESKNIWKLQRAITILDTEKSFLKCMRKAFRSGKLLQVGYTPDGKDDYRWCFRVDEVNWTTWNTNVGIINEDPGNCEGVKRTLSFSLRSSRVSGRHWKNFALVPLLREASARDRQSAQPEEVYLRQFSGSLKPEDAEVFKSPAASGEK
Description: Chinese Hamster Ovary (CHO) cells transfected to express human TrpV1 receptor (which are herein referred to as CHO-huTrpV1 cells), were grown in F-12 Ham's Nutrient Mixture media (HyClone SH30026.01) supplemented with 10% Fetal Bovine Serum (Invitrogen #26140-079), 1% Antibiotic/antimycotic (Invitrogen #15240-062) and 500 ug/mL geneticin (ThermoFisher scientific #1031035). Cells were grown in T-75 flasks at 37° C. incubator with 5% CO2. The cells were passaged twice a week at a ratio of 1:10 to 1:20 to maintain steady growth. For experimentation, cells were harvested at approximately 80% confluency and plated onto 384 well black cell culture plates (cat #781091, Greinier Bio-One Inc.) at 15,000 cells per well in 20 μl media and grown overnight.
The loading dye was prepared following instruction of Calcium 6 assay kit (Molecular Probes, #R8190): 10 ml buffer from bottle B was added to 1 vial of bottle A (adapted to room temperature from −20° C.) and mixed well, then 2.5 mM of fresh prepared probenecid, was added and mixed well. 20 μl/well of loading dye was added on top of the cells, and incubated at 37° C. for 1 hour 30 min.
Assay buffer preparation: 1×HBSS, 2 mM HEPES, 0.1% BSA plus 2.5 mM freshly prepared probenecid (Invitrogen, #P36400). 25 μl/well assay buffer in 384 well clear plate (cat #782281, Greiner Bio-one) was dispensed with buffer distributor (Multidrop ComB1 from Thermo Scientific). The compounds were in 384 Echo plate (cat #LPL0200, Labcyte) and the starting concentration of compound was 10 mM, then 1 to 3 serial dilution in 100% DMSO, 8 ul/well). 125 nl compounds was transferred to the 384 well plate containing 25 μl/well buffer with Echo® 555 Liquid Handler (Labcyte), such that the compound concentration was 5 fold of final concentration. The plate was shook slowly at 40 rpm/min for 10 min to mix. 10 μl of 5 fold compound in the buffer was transferred to the cell plate (containing 20 μl cells and 20 μl dye) using Vertical Pipetting Station 384ST (Agilent Technologies). Six fold of final concentration of NADA (N-arachidonyl dopamine, cat #A8848, Sigma) in the assay buffer was prepared and 30 μl/well was distributed in 384 well clear plate.
After compounds were added to the cell plate with loading dye, within 10-15 minutes, cell plate and plate containing NADA was placed into the FLIPR (Fluorescent Imaging Plate Reader) instrument (Tetra System, Molecular device). The TRPV1 receptor was stimulated by application of 10 μl per well of NADA. For testing the effect of compounds for possible antagonism, 2.5 μM NADA was used at the EC80 concentration.
For determination of antagonist IC50 values (concentration of antagonist that inhibits response to NADA by 50%), at least 10 antagonist concentration were measured in triplicate. The response in the presence of the antagonist was calculated as a percentage of the control response to NADA and was plotted against the concentration of the antagonist. The IC50 was estimated by non-linear regression analysis to sigmoidal-logistic curves by HELIOS (PROD 2) system. These values were averaged (means and standard error of the mean) for at least three independent experiments.
For `O=C(Cc1cccc2cnccc12)N[C@H]1C[C@H](Oc2ccc(F)c(C(F)(F)F)c2)C1` [Example 65, N-((1r,3r)-3-(4-fluoro-3-(trifluoromethyl)phenoxy)cyclobutyl)-2-(isoquinolin-5-yl)acetamide], the 50% inhibitory concentration (IC50) is 0.00098 µM. As for `CS(=O)(=O)NCC(O)c1cc(F)c(CN[C@H]2C[C@H](Oc3ccc(F)c(C(F)(F)F)c3)C2)c2ccncc12` (stereo partly drawn) [Example 66, N-(2-(6-fluoro-5-((((1r,3r)-3-(4-fluoro-3-(trifluoromethyl)phenoxy)cyclobutyl)amino)methyl)isoquinolin-8-yl)-2-hydroxyethyl)methanesulfonamide], the figure is 1.11 µM. `NS(=O)(=O)NCC(O)c1cc(F)c(CN[C@H]2C[C@H](Oc3ccc(F)c(C(F)(F)F)c3)C2)c2ccncc12` (stereo partly drawn) [Example 67, N-(2-(6-fluoro-5-((((1r,3r)-3-(4-fluoro-3-(trifluoromethyl)phenoxy)cyclobutyl)amino)methyl)isoquinolin-8-yl)-2-hydroxyethyl) sulfuric diamide]: the IC50 stood at 0.00377 µM.

For the compound `C[C@]1(NCc2c(F)ccc3cnccc23)C[C@@H](Oc2ccc(F)c(C(F)(F)F)c2)C1` [Example 68 cis, (1s,3s)-3-(4-fluoro-3-(trifluoromethyl)phenoxy)-N-((6-fluoroisoquinolin-5-yl)methyl)-1-methylcyclobutan-1-amine], the 50% inhibitory concentration (IC50) came out at 0.333 µM. For `C[C@]1(NCc2c(F)ccc3cnccc23)C[C@H](Oc2ccc(F)c(C(F)(F)F)c2)C1` [Example 68 trans, (1r,3r)-3-(4-fluoro-3-(trifluoromethyl)phenoxy)-N-((6-fluoroisoquinolin-5-yl)methyl)-1-methylcyclobutan-1-amine], the IC50 worked out at 0.0129 µM. Then `Nc1cc2c(CC(=O)N[C@H]3C[C@H](Oc4ccc(F)c(C(F)(F)F)c4)C3)c(F)ccc2cn1` [Example 69, 2-(3-amino-6-fluoroisoquinolin-5-yl)-N-((1r,3r)-3-(4-fluoro-3-(trifluoromethyl)phenoxy)cyclobutyl)acetamide], with 0.00015 µM. As for `CC(=O)NCC(O)c1cc(F)c(CN[C@H]2C[C@H](Oc3ccc(F)c(C(F)(F)F)c3)C2)c2ccncc12` (stereo partly drawn) [Example 70, N-(2-(6-fluoro-5-((((1r,3r)-3-(4-fluoro-3-(trifluoromethyl)phenoxy)cyclobutyl)amino)methyl)isoquinolin-8-yl)-2-hydroxyethyl)acetamide], the half-inhibitory concentration (IC50) was 0.402 µM.

For `Fc1ccc2cnccc2c1CN[C@H]1C[C@H](Oc2cccc(C(F)(F)F)c2)C1` [Example 71, (1r,3r)-N-((6-fluoroisoquinolin-5-yl)methyl)-3-(3-(trifluoromethyl)phenoxy)cyclobutan-1-amine, HCl], the IC50 came to 0.0316 µM. Then `O=C(O)C(O)c1cc(F)c(CN[C@H]2C[C@H](Oc3ccc(F)c(C(F)(F)F)c3)C2)c2ccncc12` (stereo partly drawn) [Example 72, 2-(6-fluoro-5-((((1r,3r)-3-(4-fluoro-3-(trifluoromethyl)phenoxy)cyclobutyl)amino)methyl)isoquinolin-8-yl)-2-hydroxyacetic acid], with 0.0521 µM; and `[O-][n+]1ccc2c(CN[C@H]3C[C@H](Oc4ccc(F)c(C(F)(F)F)c4)C3)c(F)ccc2c1` [Example 73, 6-fluoro-5-((((1r,3r)-3-(4-fluoro-3-(trifluoromethyl)phenoxy)cyclobutyl)amino)methyl)isoquinoline 2-oxide], with 0.193 µM; and `Nc1cc2c(CN[C@H]3C[C@H](Oc4ccc(C(F)(F)F)nc4)C3)cccc2cn1` [Example 74, 5-((((1r,3r)-3-((6-(trifluoromethyl)pyridin-3-yl)oxy)cyclobutyl)amino)methyl)isoquinolin-3-amine], with 0.995 µM.

Consider `N#Cc1ccc(O[C@H]2C[C@H](NCc3c(F)ccc4cnccc34)C2)c(F)n1` [Example 75, 6-fluoro-5-((1r,3r)-3-(((6-fluoroisoquinolin-5-yl)methyl)amino)cyclobutoxy)picolinonitrile, HCl], for which the IC50 was found to be 0.269 µM. Consider `Fc1ccc2cnccc2c1CN[C@H]1C[C@H](Oc2ccc(C(F)(F)F)cc2)C1` [Example 76, (1r,3r)-N-((6-fluoroisoquinolin-5-yl)methyl)-3-(4-(trifluoromethyl)phenoxy)cyclobutan-1-amine, HCl], for which the IC50 worked out at 0.0277 µM. Regarding `OCCC(CO)c1cc(F)c(CN[C@H]2C[C@H](Oc3ccc(F)c(C(F)(F)F)c3)C2)c2ccncc12` (stereo partly drawn) [Example 77, 2-(6-fluoro-5-((((1r,3r)-3-(4-fluoro-3-(trifluoromethyl)phenoxy)cyclobutyl)amino)methyl)isoquinolin-8-yl)butane-1,4-diol], the IC50 was determined as 0.691 µM. Take `Fc1ccc(CO[C@H]2C[C@H](NCc3c(F)ccc4cnccc34)C2)cc1F` [Example 78, (1r,3r)-3-((3,4-difluorobenzyl)oxy)-N-((6-fluoroisoquinolin-5-yl)methyl)cyclobutan-1-amine]: the IC50 stood at 0.77 µM.

Consider `Cc1ccc(O[C@H]2C[C@H](NCc3c(F)ccc4cnccc34)C2)cc1C` [Example 79, (1r,3r)-3-(3,4-dimethylphenoxy)-N-((6-fluoroisoquinolin-5-yl)methyl)cyclobutan-1-amine, HCl], for which the IC50 was 0.147 µM.

In the case of `CCOC(=O)c1ccc(O[C@H]2C[C@H](NCc3c(F)ccc4cnccc34)C2)cc1` [Example 80, ethyl 4-((1r,3r)-3-(((6-fluoroisoquinolin-5-yl)methyl)amino)cyclobutoxy)benzoate], the 50% inhibitory concentration (IC50) is 0.98 µM.

Turning to `CN(C)c1ccc2cnccc2c1CN[C@H]1C[C@H](Oc2ccc(F)c(C(F)(F)F)c2)C1` [Example 81, 5-((((1r,3r)-3-(4-fluoro-3-(trifluoromethyl)phenoxy)cyclobutyl)amino)methyl)-N,N-dimethylisoquinolin-6-amine, HCl], the half-inhibitory concentration (IC50) stood at 0.255 µM. Turning to `Fc1cc(F)cc(O[C@H]2C[C@H](NCc3c(F)ccc4cnccc34)C2)c1` [Example 82, (1r,3r)-3-(3,5-difluorophenoxy)-N-((6-fluoroisoquinolin-5-yl)methyl)cyclobutan-1-amine, HCl], the concentration for half-maximal inhibition (IC50) came to 0.169 µM. For `Fc1ccc2cnccc2c1CN[C@H]1C[C@H](Oc2ccc(S(F)(F)(F)(F)F)cc2)C1` [Example 83, (1r,3r)-N-((6-fluoroisoquinolin-5-yl)methyl)-3-(4-(pentafluoro-λ^6-sulfaneyl)phenoxy)cyclobutan-1-amine, HCl], the IC50 was determined as 0.207 µM. Then `Cc1cc(C)cc(O[C@H]2C[C@H](NCc3c(F)ccc4cnccc34)C2)c1` [Example 84, (1r,3r)-3-(3,5-dimethylphenoxy)-N-((6-fluoroisoquinolin-5-yl)methyl)cyclobutan-1-amine, HCl], with 0.722 µM; and `Fc1ccc2cnccc2c1CN[C@H]1C[C@H](Oc2ccc(C3CC3)cc2)C1` [Example 85, (1r,3r)-3-(4-cyclopropylphenoxy)-N-((6-fluoroisoquinolin-5-yl)methyl)cyclobutan-1-amine, HCl], with 0.155 µM; and `N#Cc1ccc(O[C@H]2C[C@H](NCc3c(F)ccc4cnccc34)C2)cc1C(F)(F)F` [Example 86, 4-((1r,3r)-3-(((6-fluoroisoquinolin-5-yl)methyl)amino)cyclobutoxy)-2-(trifluoromethyl)benzonitrile, HCl], with 0.0693 µM. As for `Fc1ccc(O[C@H]2C[C@H](NCc3cccc4cncnc34)C2)cc1C(F)(F)F` [Example 87, (1r,3r)-3-(4-fluoro-3-(trifluoromethyl)phenoxy)-N-(quinazolin-8-ylmethyl)cyclobutan-1-amine, HCl], the figure is 0.321 µM. Consider `Fc1ccc2cnccc2c1CN[C@H]1C[C@H](Oc2cccc(C3CC3)c2)C1` [Example 88, (1r,3r)-3-(3-cyclopropylphenoxy)-N-((6-fluoroisoquinolin-5-yl)methyl)cyclobutan-1-amine, HCl], for which the 50% inhibitory concentration (IC50) turned out to be 0.0952 µM. As for `OCc1cc(F)c(CN[C@H]2C[C@@H](Oc3ccc(F)c(C(F)(F)F)c3)C2)c2ccncc12` [Example 89, (6-fluoro-5-((((1s,3s)-3-(4-fluoro-3-(trifluoromethyl)phenoxy)cyclobutyl)amino)methyl)isoquinolin-8-yl)methanol, HCl], the figure is 0.44 µM; as for `OCc1cc(F)c(CN[C@H]2C[C@H](Oc3ccnc(C(F)(F)F)c3)C2)c2ccncc12` [Example 90, (6-fluoro-5-((((1r,3r)-3-((2-(trifluoromethyl)pyridin-4-yl)oxy)cyclobutyl)amino)methyl)isoquinolin-8-yl)methanol], 0.874 µM. Consider `Fc1ccc(O[C@H]2C[C@H](NCc3c(F)ccc4cnccc34)C2)cc1C(F)F` [Example 91, (1r,3r)-3-(3-(difluoromethyl)-4-fluorophenoxy)-N-((6-fluoroisoquinolin-5-yl)methyl)cyclobutan-1-amine, HCl], for which the IC50 is 0.0399 µM. On to `COc1ncc(O[C@H]2C[C@H](NCc3c(F)ccc4cnccc34)C2)cc1C(F)(F)F` [Example 92, (1r,3r)-N-((6-fluoroisoquinolin-5-yl)methyl)-3-((6-methoxy-5-(trifluoromethyl)pyridin-3-yl)oxy)cyclobutan-1-amine, HCl], for which the IC50 was 0.58 µM. Take `Fc1cc(O[C@H]2C[C@H](NCc3c(F)ccc4cnccc34)C2)ccc1OC(F)(F)F` [Example 93, (1r,3r)-3-(3-fluoro-4-(trifluoromethoxy)phenoxy)-N-((6-fluoroisoquinolin-5-yl)methyl)cyclobutan-1-amine, HCl]: the IC50 is 0.0826 µM. Take `Fc1ccc2cnccc2c1CN[C@H]1C[C@H](Oc2ccc(C(F)(F)F)nc2)C1` [Example 94, (1r,3r)-N-((6-fluoroisoquinolin-5-yl)methyl)-3-((6-(trifluoromethyl)pyridin-3-yl)oxy)cyclobutan-1-amine, HCl]: the IC50 was 0.193 µM. As to `Fc1ccc2cnccc2c1CN[C@H]1C[C@H](Oc2cncc(C(F)(F)F)c2)C1` [Example 95, (1r,3r)-N-((6-fluoroisoquinolin-5-yl)methyl)-3-((5-(trifluoromethyl)pyridin-3-yl)oxy)cyclobutan-1-amine, HCl], the IC50 was found to be 0.323 µM. As for `Fc1ccc2cnccc2c1CN[C@H]1C[C@H](Oc2nc3ccccc3s2)C1` [Example 96, (1r,3r)-3-(benzo[d]thiazol-2-yloxy)-N-((6-fluoroisoquinolin-5-yl)methyl)cyclobutan-1-amine, HCl], the figure is 0.747 µM.

For orientation: IC50 means the concentration that inhibits the measured activity by half.
